For the data set, the target named is cGAS (Homo sapiens, UniProt Q8N884). In words: ISD70-driven IP-10 (and IFN-β) production in THP-1 cells, ELISA. In kind it is cell-based. Details: endogenous in cells; host or cells: THP-1 (undifferentiated). To be noted: for cGAS 100 nM (averaged IP-10 level relative to ISD70 condition): ASO 100 nM, relative to ISD70 only, given as fraction; for cGAS-100 nM: averaged IP-10 levels relative to ISD70: THP-1, 100 nM ASO overnight, then ISD70 2.5 μg/ml 7-8 h, percentage of ISD70 only. For orientation: ELISA stands for enzyme-linked immunosorbent assay.

In the oligonucleotide strings, read from the 5' end, every base follows the letter of its sugar. An asterisk marks phosphorothioate; unmarked linkages are phosphodiester. Other units and linkages are bracketed, terminal groups are in braces. A string of capitals states the bases alone. d = 2'-deoxy (DNA); m = 2'-O-methyl

Chain of cGAS (Q8N884 whole entry): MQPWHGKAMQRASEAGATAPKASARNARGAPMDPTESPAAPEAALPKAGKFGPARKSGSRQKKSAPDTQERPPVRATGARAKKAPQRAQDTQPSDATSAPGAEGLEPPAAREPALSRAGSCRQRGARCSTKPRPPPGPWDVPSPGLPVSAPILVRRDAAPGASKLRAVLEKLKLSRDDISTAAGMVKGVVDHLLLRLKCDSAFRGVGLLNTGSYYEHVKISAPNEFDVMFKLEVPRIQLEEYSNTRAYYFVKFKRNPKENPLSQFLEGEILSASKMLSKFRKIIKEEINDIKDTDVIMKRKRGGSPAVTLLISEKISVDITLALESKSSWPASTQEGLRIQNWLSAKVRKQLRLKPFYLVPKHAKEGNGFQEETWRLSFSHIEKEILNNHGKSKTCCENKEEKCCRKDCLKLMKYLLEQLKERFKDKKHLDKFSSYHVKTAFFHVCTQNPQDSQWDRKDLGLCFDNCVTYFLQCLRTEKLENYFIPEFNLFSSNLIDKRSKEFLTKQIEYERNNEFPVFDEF

For the substance “TCTTGGCTTCGTGGAG (antisense; LNA-modified, pattern not given here) [MB21D1-521 LNA V1]”, the “cGAS 100 nM (averaged IP-10 level relative to ISD70 condition)” value came to 0.693.

Turning to “CTGCAGCTTCCTTGTC (antisense; LNA-modified, pattern not given here) [CTNN2B-2136 LNA V1]”, the “cGAS 100 nM (averaged IP-10 level relative to ISD70 condition)” value is on record as 0.613.

As for “AGCTTCGAGGCCCCAG (antisense; LNA-modified, pattern not given here) [MB21D1-616 LNA V1]”, the “cGAS 100 nM (averaged IP-10 level relative to ISD70 condition)” value was determined as 0.648. For “GTCTCTGGAGCTTCCT (antisense; LNA-modified, pattern not given here) [CAMSAP1-2456 LNA V1]”, the “cGAS 100 nM (averaged IP-10 level relative to ISD70 condition)” value is recorded as 0.627. For the substance “AAAGGACTGAGGAAAG (antisense; LNA-modified, pattern not given here) [CAMSAP1-6273 LNA KL]”, the “cGAS 100 nM (averaged IP-10 level relative to ISD70 condition)” value was found to be 0.675.

“TCCACAATCAAGACAT (antisense; LNA-modified, pattern not given here) [HPRT LNA-551 KL]”: the “cGAS 100 nM (averaged IP-10 level relative to ISD70 condition)” value worked out at 0.601. With “GCACACTTCGTACCCA (antisense; LNA-modified, pattern not given here) [CAMSAP1-4915 LNA V1]”, the “cGAS 100 nM (averaged IP-10 level relative to ISD70 condition)” value worked out at 0.383. Regarding “mC*mA*mG*mU*mC*T*C*C*A*T*G*T*C*C*C*mA*mG*mG*mC*mC (mC*mA*mG*mU*mC*dT*dC*dC*dA*dT*dG*dT*dC*dC*dC*mA*mG*mG*mC*mC; antisense) [[CDKN2B-AS1]2233]”, the “cGAS-100 nM: averaged IP-10 levels relative to ISD70” value is 75.92%.

Turning to “GTCCTTGCACGTGGCT (antisense; LNA-modified, pattern not given here) [EGFR-1015 LNA V1]”, the “cGAS 100 nM (averaged IP-10 level relative to ISD70 condition)” value turned out to be 0.645. For “TCCGCCCAAAGGGAAC (antisense; LNA-modified, pattern not given here) [HPRT LNA-1027 KL]”, the “cGAS 100 nM (averaged IP-10 level relative to ISD70 condition)” value is listed as 0.860.

Take “mG*mU*mG*mU*mU*T*T*T*A*A*T*T*T*T*G*mU*mA*mG*mA*mG (mG*mU*mG*mU*mU*dT*dT*dT*dA*dA*dT*dT*dT*dT*dG*mU*mA*mG*mA*mG) [[CDKN2B-AS1]611]”: the “cGAS-100 nM: averaged IP-10 levels relative to ISD70” value is on record as 66.24%. With “mA*mU*mU*mU*mC*C*A*C*A*T*G*C*C*C*A*mG*mU*mG*mU*mU (AUUUCCACATGCCCAGUGUU; antisense; sugars from the 5' end m5 d10 m5, all phosphorothioate, methylation of C not given here) [[CDKN2B-AS1]626]”, the “cGAS-100 nM: averaged IP-10 levels relative to ISD70” value is reported as 52.58%. The same measure, in the same setting: to “mC*mU*mU*mG*mU*G*A*A*A*A*G*A*T*T*A*mU*mC*mU*mU*mC (mC*mU*mU*mG*mU*dG*dA*dA*dA*dA*dG*dA*dT*dT*dA*mU*mC*mU*mU*mC) [[CDKN2B-AS1]2139]” belongs 33.75%.

In the case of “CCTTGCACGTGGCTTC (antisense; LNA-modified, pattern not given here) [EGFR-1013 LNA V1]”, the “cGAS 100 nM (averaged IP-10 level relative to ISD70 condition)” value amounted to 0.559. In the case of “CACTTCGTGGGGTCCT (antisense; LNA-modified, pattern not given here) [HPRT LNA-664 V1]”, the “cGAS 100 nM (averaged IP-10 level relative to ISD70 condition)” value came to 0.562. For “mA*mA*mA*mG*mC*A*G*T*C*T*C*C*A*T*G*mU*mC*mC*mC*mA (mA*mA*mA*mG*mC*dA*dG*dT*dC*dT*dC*dC*dA*dT*dG*mU*mC*mC*mC*mA; antisense) [[CDKN2B-AS1]2237]”, the “cGAS-100 nM: averaged IP-10 levels relative to ISD70” value is given as 70.95%. Still for that read-out and setting: as for “mA*mG*mC*mA*mG*T*C*T*C*C*A*T*G*T*C*mC*mC*mA*mG*mG (AGCAGTCTCCATGTCCCAGG; antisense; sugars from the 5' end m5 d10 m5, all phosphorothioate, methylation of C not given here) [[CDKN2B-AS1]2235]”, the figure is 28.75%. For “ATCTGGCAGCCCATCA (antisense; LNA-modified, pattern not given here) [CTNN2B-2516 LNA V1]”, the “cGAS 100 nM (averaged IP-10 level relative to ISD70 condition)” value is 0.502. In the case of “CCAACACTTCGTGGGG (antisense; LNA-modified, pattern not given here) [HPRT LNA-668 V1]”, the “cGAS 100 nM (averaged IP-10 level relative to ISD70 condition)” value is given as 0.842.

As for “AACACTTCGTGGGGTC (antisense; LNA-modified, pattern not given here) [HPRT LNA-666 V1]”, the “cGAS 100 nM (averaged IP-10 level relative to ISD70 condition)” value was 0.598. In the case of “CTTCGTGGGGTCCTTT (antisense; LNA-modified, pattern not given here) [HPRT LNA-662 V1]”, the “cGAS 100 nM (averaged IP-10 level relative to ISD70 condition)” value turned out to be 0.556.

“AACCCCTTTCACCATC (antisense; LNA-modified, pattern not given here) [MB21D1-689 LNA KL]”: the “cGAS 100 nM (averaged IP-10 level relative to ISD70 condition)” value is listed as 0.621. Still for that read-out and setting: as for “CGTATTATAGCCGATT (antisense; LNA-modified, pattern not given here) [NC1 LNA PS 3-10-3]”, the figure is 0.443; as for “GGAGGTCTTGGCTTCG (antisense; LNA-modified, pattern not given here) [MB21D1-526 LNA V1]”, 1.061; as for “TGTCCTTGCACGTGGC (antisense; LNA-modified, pattern not given here) [EGFR-1016 LNA V1]”, 0.678. Same read-out and setting: as for “ACCACGTCTGCTCTAA (antisense; LNA-modified, pattern not given here) [CAMSAP1-1635 LNA KL]”, the figure is 0.638.

Regarding “mG*mU*mC*mU*mC*C*A*T*G*T*C*C*C*A*G*mG*mC*mC*mU*mC (mG*mU*mC*mU*mC*dC*dA*dT*dG*dT*dC*dC*dC*dA*dG*mG*mC*mC*mU*mC) [[CDKN2B;AS1]2231]”, the “cGAS-100 nM: averaged IP-10 levels relative to ISD70” value came to 84.16%. In the case of “GTGATGGCCTCCCATC (antisense; LNA-modified, pattern not given here) [HPRT LNA-333 V1]”, the “cGAS 100 nM (averaged IP-10 level relative to ISD70 condition)” value was determined as 0.724. As to “GAAAGGTTATGCAAGG (antisense; LNA-modified, pattern not given here) [CTNN2B-916 LNA KL]”, the “cGAS 100 nM (averaged IP-10 level relative to ISD70 condition)” value was 0.473.

Consider “TGGTGGCCACCCATCT (antisense; LNA-modified, pattern not given here) [CTNN2B-2479 LNA V1]”, for which the “cGAS 100 nM (averaged IP-10 level relative to ISD70 condition)” value worked out at 0.830. With “GTGATCTTGACATGCT (antisense; LNA-modified, pattern not given here) [EGFR-2790 LNA KL]”, the “cGAS 100 nM (averaged IP-10 level relative to ISD70 condition)” value is on record as 0.661.

Values taken from patent US20240384268A1, “Oligonucleotides” (Hudson Institute of Medical Research, priority 2021, published 2024).
